The structures appear in SMILES notation.

Holding throughout (test): KINOMEscan competitive binding
The target of assay [1] is T1, RPS6KA2(Kin.Dom.1) (Homo sapiens, UniProt Q15349).
T1 construct: RPS6KA2(Kin.Dom.1); purchased DiscoverX (KINOMEscan)
The following applies: n=1, read-out: Percent inhibition, RPS6KA2(Kin.Dom.1).

Assay [2] has as its target T2, YSK1 (Homo sapiens, UniProt O00506).
T2 construct: purchased DiscoverX (KINOMEscan)
Particulars: n=1, read-out: Percent inhibition, YSK1.

In assay [3] the target is T3, PRKD2 (Homo sapiens, UniProt Q9BZL6).
T3 construct: purchased DiscoverX (KINOMEscan)
T3 sequence (Q9BZL6 1-878): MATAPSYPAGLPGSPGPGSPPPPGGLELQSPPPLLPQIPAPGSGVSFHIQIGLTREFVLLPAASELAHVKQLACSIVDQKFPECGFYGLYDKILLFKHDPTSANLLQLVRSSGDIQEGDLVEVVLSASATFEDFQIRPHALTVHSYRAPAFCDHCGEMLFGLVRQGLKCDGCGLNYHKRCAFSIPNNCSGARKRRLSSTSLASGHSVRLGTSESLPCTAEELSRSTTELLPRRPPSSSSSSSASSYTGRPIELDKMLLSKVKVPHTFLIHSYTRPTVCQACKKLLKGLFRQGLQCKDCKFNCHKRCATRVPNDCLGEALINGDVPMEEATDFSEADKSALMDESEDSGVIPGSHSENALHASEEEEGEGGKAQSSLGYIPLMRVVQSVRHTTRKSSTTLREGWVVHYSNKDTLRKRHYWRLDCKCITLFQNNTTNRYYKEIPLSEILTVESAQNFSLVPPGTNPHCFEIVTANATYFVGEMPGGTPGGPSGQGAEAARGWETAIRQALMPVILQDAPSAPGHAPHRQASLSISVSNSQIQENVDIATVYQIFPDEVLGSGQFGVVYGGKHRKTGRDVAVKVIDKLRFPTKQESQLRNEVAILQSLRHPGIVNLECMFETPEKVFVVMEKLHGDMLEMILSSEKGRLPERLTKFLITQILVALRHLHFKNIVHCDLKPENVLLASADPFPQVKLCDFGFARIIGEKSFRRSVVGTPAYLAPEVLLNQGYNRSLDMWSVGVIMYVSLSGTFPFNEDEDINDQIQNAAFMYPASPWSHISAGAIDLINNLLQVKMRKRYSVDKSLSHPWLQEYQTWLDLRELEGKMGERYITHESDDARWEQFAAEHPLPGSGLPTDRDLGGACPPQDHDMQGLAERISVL
The following applies: n=1, read-out: Percent inhibition, PRKD2.

Assay [4] addresses T4, PHKG2 (Homo sapiens, UniProt P15735).
T4 construct: purchased DiscoverX (KINOMEscan)
T4 sequence (P15735 1-406): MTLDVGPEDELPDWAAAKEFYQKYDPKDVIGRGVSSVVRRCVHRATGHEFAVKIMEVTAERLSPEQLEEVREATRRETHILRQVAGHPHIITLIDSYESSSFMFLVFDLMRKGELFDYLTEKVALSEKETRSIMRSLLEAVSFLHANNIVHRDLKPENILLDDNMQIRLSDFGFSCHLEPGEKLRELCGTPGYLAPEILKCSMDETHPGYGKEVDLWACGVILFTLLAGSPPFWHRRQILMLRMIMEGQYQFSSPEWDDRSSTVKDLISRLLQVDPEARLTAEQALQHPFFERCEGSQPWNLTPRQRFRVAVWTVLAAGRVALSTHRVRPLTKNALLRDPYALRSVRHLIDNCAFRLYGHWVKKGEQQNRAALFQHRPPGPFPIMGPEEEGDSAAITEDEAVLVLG
Particulars: n=1, read-out: Percent inhibition, PHKG2.

Assay [5] addresses T5, YANK3 (Homo sapiens, UniProt Q86UX6).
T5 construct: purchased DiscoverX (KINOMEscan)
Particulars: n=1, read-out: Percent inhibition, YANK3.

Assay [6] has as its target T6, PAK7/PAK5 (Homo sapiens, UniProt Q9P286).
T6 construct: purchased DiscoverX (KINOMEscan)
Particulars: n=1, read-out: Percent inhibition, PAK7/PAK5.

The target in assay [7] is T7, TGFBR1 (Homo sapiens, UniProt P36897).
T7 construct: purchased DiscoverX (KINOMEscan)
T7 sequence (P36897 34-503): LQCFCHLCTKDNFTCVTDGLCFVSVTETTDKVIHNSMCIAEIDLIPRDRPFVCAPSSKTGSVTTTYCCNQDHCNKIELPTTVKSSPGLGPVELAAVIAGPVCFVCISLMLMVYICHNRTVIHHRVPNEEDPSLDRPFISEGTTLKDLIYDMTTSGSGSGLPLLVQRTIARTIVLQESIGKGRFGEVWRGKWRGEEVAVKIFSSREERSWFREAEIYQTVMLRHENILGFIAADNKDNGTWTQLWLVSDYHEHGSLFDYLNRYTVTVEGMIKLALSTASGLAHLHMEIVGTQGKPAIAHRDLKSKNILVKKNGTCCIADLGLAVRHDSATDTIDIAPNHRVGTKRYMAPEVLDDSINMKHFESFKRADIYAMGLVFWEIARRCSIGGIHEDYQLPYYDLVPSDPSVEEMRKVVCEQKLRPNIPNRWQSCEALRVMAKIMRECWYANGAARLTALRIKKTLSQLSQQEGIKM
The following applies: n=1, read-out: Percent inhibition, TGFBR1.

The target of assay [8] is T8, TLK2 (Homo sapiens, UniProt Q86UE8).
T8 construct: purchased DiscoverX (KINOMEscan)
Particulars: n=1, read-out: Percent inhibition, TLK2.

In assay [9] the target is T9, YES (Homo sapiens, UniProt P07947).
T9 construct: purchased DiscoverX (KINOMEscan)
The following applies: n=1, read-out: Percent inhibition, YES.

For assay [10], the target named is T10, TXK (Homo sapiens, UniProt P42681).
T10 construct: purchased DiscoverX (KINOMEscan)
T10 sequence (P42681 1-527): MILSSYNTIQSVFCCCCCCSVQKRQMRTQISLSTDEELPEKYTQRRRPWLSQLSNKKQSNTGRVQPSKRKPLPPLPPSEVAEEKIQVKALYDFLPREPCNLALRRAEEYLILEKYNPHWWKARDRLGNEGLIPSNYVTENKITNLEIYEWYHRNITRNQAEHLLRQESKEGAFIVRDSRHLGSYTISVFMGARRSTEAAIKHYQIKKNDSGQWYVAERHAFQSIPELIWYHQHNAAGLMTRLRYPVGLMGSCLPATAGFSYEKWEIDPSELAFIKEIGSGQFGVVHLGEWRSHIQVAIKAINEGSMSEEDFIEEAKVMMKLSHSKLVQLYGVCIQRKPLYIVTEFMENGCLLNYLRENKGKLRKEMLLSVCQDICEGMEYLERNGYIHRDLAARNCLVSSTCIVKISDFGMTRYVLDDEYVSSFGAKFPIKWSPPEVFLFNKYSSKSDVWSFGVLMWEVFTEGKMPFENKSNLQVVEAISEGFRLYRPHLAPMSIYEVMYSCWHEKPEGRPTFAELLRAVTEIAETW
The following applies: n=1, read-out: Percent inhibition, TXK.

T2 sequence (O00506 whole entry): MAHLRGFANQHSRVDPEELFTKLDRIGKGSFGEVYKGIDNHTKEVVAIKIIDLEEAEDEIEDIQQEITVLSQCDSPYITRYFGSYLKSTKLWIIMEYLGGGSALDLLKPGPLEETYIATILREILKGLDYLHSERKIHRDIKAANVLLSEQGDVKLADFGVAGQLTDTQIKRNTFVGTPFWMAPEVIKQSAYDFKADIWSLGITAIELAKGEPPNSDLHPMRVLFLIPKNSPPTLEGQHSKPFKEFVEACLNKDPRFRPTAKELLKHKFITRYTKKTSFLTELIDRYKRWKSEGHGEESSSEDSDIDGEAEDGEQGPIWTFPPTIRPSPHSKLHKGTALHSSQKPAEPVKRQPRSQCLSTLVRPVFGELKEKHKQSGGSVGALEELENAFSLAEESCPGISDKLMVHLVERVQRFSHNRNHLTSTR
T1 sequence (Q15349 1-388 limits assumed): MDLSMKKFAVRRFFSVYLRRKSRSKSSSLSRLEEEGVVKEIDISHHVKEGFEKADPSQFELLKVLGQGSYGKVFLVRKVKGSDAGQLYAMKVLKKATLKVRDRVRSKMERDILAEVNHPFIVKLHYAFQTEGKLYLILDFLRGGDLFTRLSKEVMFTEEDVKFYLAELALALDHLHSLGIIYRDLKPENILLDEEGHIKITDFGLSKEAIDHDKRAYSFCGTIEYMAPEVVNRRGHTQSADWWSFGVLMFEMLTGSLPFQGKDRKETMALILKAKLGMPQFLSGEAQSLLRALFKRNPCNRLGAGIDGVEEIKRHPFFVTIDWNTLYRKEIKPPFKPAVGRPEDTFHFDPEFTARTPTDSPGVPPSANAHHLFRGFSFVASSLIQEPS
T5 sequence (Q86UX6 whole entry): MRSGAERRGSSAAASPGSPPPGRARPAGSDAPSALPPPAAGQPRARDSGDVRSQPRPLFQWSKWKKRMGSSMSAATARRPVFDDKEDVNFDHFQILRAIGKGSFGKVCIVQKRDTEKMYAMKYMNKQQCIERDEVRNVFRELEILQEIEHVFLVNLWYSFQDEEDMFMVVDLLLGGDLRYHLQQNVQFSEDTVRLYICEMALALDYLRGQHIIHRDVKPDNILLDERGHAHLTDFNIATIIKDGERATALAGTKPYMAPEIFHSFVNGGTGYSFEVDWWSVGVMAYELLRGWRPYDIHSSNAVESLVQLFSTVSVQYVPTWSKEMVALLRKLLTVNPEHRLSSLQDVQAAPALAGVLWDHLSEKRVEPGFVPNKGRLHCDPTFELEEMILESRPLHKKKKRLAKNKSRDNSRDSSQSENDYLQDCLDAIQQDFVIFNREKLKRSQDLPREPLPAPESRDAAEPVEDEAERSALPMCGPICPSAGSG
T8 sequence (Q86UE8 whole entry): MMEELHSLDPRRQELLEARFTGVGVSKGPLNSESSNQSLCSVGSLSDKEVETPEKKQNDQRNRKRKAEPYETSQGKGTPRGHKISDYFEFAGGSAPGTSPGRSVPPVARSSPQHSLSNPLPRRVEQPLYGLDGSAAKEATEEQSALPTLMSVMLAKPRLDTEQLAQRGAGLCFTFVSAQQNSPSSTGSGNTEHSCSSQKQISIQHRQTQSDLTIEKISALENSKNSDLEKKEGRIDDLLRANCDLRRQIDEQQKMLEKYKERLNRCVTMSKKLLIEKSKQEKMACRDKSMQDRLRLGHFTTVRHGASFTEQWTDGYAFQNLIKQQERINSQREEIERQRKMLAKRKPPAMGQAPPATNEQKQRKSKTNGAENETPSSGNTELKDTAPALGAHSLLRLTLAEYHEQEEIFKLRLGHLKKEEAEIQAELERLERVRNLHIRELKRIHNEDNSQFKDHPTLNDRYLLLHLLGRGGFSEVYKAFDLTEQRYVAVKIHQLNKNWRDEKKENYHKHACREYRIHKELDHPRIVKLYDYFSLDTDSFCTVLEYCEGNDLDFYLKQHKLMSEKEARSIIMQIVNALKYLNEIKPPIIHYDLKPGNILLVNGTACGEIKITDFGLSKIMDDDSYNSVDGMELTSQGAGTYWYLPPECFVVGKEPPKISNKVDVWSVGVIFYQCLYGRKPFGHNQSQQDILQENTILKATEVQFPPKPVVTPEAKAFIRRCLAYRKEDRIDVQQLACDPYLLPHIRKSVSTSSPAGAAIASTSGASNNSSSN
T9 sequence (P07947 whole entry): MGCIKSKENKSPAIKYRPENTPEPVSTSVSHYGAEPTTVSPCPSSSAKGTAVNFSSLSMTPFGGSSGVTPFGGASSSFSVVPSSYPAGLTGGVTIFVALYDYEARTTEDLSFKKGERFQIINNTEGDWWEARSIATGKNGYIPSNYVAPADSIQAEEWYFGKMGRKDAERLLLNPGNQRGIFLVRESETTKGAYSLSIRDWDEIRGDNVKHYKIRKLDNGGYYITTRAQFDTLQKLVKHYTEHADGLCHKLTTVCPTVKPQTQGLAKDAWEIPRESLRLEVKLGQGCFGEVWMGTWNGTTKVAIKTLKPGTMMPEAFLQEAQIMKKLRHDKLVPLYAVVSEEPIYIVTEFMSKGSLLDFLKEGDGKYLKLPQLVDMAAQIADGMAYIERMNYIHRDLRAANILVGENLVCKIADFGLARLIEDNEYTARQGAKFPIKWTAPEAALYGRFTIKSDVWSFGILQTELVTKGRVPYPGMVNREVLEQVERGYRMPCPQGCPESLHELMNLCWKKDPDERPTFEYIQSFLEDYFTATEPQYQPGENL
T6 sequence (Q9P286 whole entry): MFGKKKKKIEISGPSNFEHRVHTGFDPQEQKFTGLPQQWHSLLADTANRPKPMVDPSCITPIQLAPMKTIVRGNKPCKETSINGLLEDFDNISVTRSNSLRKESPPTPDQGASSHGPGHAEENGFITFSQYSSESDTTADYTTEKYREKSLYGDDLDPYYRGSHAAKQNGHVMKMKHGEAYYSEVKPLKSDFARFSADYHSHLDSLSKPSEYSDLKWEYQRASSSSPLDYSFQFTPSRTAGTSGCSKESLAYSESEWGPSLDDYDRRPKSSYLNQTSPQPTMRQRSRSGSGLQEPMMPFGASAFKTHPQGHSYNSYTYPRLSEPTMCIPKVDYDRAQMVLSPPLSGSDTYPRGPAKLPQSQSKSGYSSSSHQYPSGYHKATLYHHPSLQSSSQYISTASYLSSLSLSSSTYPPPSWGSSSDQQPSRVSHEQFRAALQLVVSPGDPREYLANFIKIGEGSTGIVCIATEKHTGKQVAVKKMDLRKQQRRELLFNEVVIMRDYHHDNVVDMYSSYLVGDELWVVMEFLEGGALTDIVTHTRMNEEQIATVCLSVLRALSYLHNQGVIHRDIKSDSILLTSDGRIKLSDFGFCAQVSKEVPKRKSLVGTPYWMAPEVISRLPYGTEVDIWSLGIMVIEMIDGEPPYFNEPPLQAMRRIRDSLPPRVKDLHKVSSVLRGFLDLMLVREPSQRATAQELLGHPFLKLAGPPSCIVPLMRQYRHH

`CN1CCN(c2ccc(Nc3nccc(-c4cnn5ncccc45)n3)cc2C#N)CC1` [Compound 1]: the inhibition at 10 µM in assay [1] came to 77.6%; in assay [2], 90.8%; in assay [3], 0%; in [4], 100%; in assay [5], 0%; in [6], 99.2%. Besides, the inhibition at 10 µM in [7] was found to be 78.8%; in [8], 98.7%; in assay [9], 92.8%; in assay [10], 0%.

For the compound `COc1ccc(Nc2nccc(-c3cnn4ncccc34)n2)cc1` [Compound 2], the inhibition at 10 µM in [1] was 0%; in assay [2], 0%; in assay [3], 75.3%; in [4], 97.1%; in assay [5], 0%; in assay [6], 72.8%. The inhibition at 10 µM in [7], in assay [8], in [9] and in [10] was 0% each time.

For the compound `Cc1ccc(O)cc1Nc1ccnc(Nc2cccc(C(N)=O)c2)n1` [Compound 3], the inhibition at 10 µM is 0% in [1]; 0% in assay [2]; 87.1% in assay [3]; 0% in [4]; 0% in assay [5]; 67.6% in [6]. The inhibition at 10 µM was 100% in assay [7], 0% in assay [8], 100% in assay [9] and 100% in assay [10].

Turning to `Cc1ccc(O)cc1N(C)c1ccnc(Nc2cccc(S(N)(=O)=O)c2)n1` [Compound 4], the inhibition at 10 µM in assay [1] is 0%; in [2], 0%; in [3] it was 96.6%; in assay [4], 0%; in [5], 78.6%; in assay [6], 98.5%. In addition, the inhibition at 10 µM in assay [7] was 100%; in assay [8], 0%; in assay [9] it was 100%; in assay [10] it was 100%.

For the compound `Fc1cccc(COc2ccc(Nc3ncnc4c3CN(CCN3CCOCC3)CC4)cc2Cl)c1` [Compound 6], the inhibition at 10 µM in assay [1], in assay [2], in [3], in assay [4], in assay [5] and in [6] was 0% each time. Besides, the inhibition at 10 µM in assay [7], in assay [8], in assay [9] and in assay [10] was 0% throughout.

On to `COc1cc(Nc2nccc(-c3sc(N)nc3-c3cccc(NC(=O)c4c(F)cccc4F)c3)n2)cc(OC)c1OC` [Compound 7], for which the inhibition at 10 µM came out at 97.2% in assay [1]; 96.3% in [2]; 100% in assay [3]; 0% in [4]; 94.8% in [5]; 89.4% in assay [6]. The inhibition at 10 µM was 72.9% in [7], 0% in assay [8], 100% in assay [9] and 90.4% in assay [10].

Turning to `C[C@@H](Oc1cc(-c2cnc3ccccn23)sc1C(N)=O)c1ccccc1Cl` [Compound 8], the inhibition at 10 µM in assay [1] turned out to be 70%; in assay [2], 0%; in assay [3], 0%; in assay [4] it was 74.6%; in assay [5], 0%; in [6], 0%. For the same compound, the inhibition at 10 µM in assay [7], in assay [8], in assay [9] and in [10] was 0% each time.

For the compound `c1ccc(COc2cccc(-c3ccnc4[nH]ccc34)c2)cc1` [Compound 9], the inhibition at 10 µM in assay [1], in assay [2], in [3], in assay [4], in assay [5] and in assay [6] was 0% throughout. The inhibition at 10 µM in [7], in assay [8], in assay [9] and in assay [10] was 0% in each case.

As to `Clc1ccc(Nc2ncc(-c3ccccc3)s2)cc1` [Compound 10], the inhibition at 10 µM in assay [1], in assay [2], in assay [3], in assay [4], in assay [5] and in assay [6] was 0% throughout. The inhibition at 10 µM in assay [7], in assay [8], in assay [9] and in [10] was 0% throughout.

With `Nc1ncc2c(-c3ccncc3)c[nH]c2n1` [Compound 11], the inhibition at 10 µM was 0% in assay [1]; 0% in [2]; 0% in assay [3]; 0% in assay [4]; 0% in assay [5]; 77.1% in assay [6]. In addition, the inhibition at 10 µM is 0% in [7], 0% in assay [8], 66.2% in [9] and 0% in [10].

Source of the values: paper PMC9927415, “Tyrosine Kinase Inhibitors Display Potent Activity against Cryptosporidium parvum” (Microbiology Spectrum, 2022).
